In patent US20220213119A1, “THIENOHETEROCYCLIC DERIVATIVE, PREPARATION METHOD THEREFOR AND MEDICAL USE THEREOF” (Jiangsu Hengrui Medicine Ca, Lid., priority 2019, published 2022) one finds IC50 data, which are given here for four compounds.

For one assay, the target named is T1, ERK1 (Homo sapiens, UniProt P27361).
T1 construct: purchased R&D 1879-KS-010
The experiment in a line: ERK1 enzyme activity test (ADP-Glo Kinase Assay). Format: biochemical. Conditions: chemiluminescence. The protocol: (§1) The purpose of this experiment is to detect the inhibitory ability of the compounds on the ERK1 enzyme activity and evaluate the activity of the compounds in vitro according to IC50. The ADP-Glo™ Kinase Assay Kit was used in this experiment. Under the action of enzyme, the substrate was phosphorylated and ADP was produced at the same time. The ADP-Glo Reagent was added to remove unreacted ATP in the reaction system. The kinase detection reagent was used to detect the ADP produced by the reaction. In the presence of the compound, the inhibition rate of the compound was calculated by measuring the signal value.
Enzyme and substrate preparation: ERK1 (1879-KS-010, R&D) and substrate (AS-61777, anaspec) were prepared to be 0.75 ng/μl and 100 μM respectively in the buffer. The enzyme solution and substrate solution were then prepared into a mixed solution at a volume ratio of 2:1 for later use. ATP was diluted to 300 μM with the buffer. The compounds were dissolved in DMSO (dimethyl sulfoxide, Shanghai Titan Scientific Co., Ltd.) to prepare a stock solution with an initial concentration of 20 mM, and then Bravo was used to prepare solutions of the compounds. Finally, a 3 μL of a mixed solution of enzyme and substrate, and 1 μL of different concentrations of the compound (the initial concentration is 50 μM, 4-fold dilution) were added to each well of the 384-well plate, and the plate was incubated at 30° C. for 10 minutes, and finally 1 μL of 300 μM ATP solution was added to each well, and the plate was incubated at 30° C. for 2 hours. Then 5 μL of ADP-Glo was added, and the plate was incubated at 30° C. for 40 minutes. Then 10 μL of Kinase detection buffer was added, and the plate was incubated at 30° C. for 40 minutes. The 384-well plate was taken out and placed in a microplate reader (BMG labtech, PHERAstar FS), and the chemiluminescence was measured by the microplate reader.
(§2) The data were processed and analyzed with Microsoft Excel, Graphpad Prism 5.
On the technique in general: ADP-Glo turns the ADP formed in a reaction into a luminescent signal.

A further assay has as its target T2, ERK2 (Homo sapiens, UniProt P28482).
T2 construct: purchased R&D 1230-KS-010
The experiment in a line: ERK2 enzyme activity test (ADP-Glo Kinase Assay). The settings on record: chemiluminescence. In kind it is biochemical. As to the method:
as §1, with “ERK2” for “ERK1”
Enzyme and substrate preparation: ERK2 (1230-KS-010, R&D) and substrate (Custom peptides, Gill Biochemical) were prepared to be 0.75 ng/μl and 1500 μM in the buffer (40 mM Tris, 20 mM MgCl2, 0.1 mg/mL BSA, 50 μM DTT). The enzyme solution and substrate solution were then prepared into a mixed solution at a volume ratio of 2:1 for later use. ATP was diluted to 500 μM with the buffer. The compounds were dissolved in DMSO (dimethyl sulfoxide, Shanghai Titan Scientific Co., Ltd.) to prepare a stock solution with an initial concentration of 20 mM, and then Bravo was used to prepare solutions of the compounds. Finally, a 3 μL of a mixed solution of enzyme and substrate, and 1 μL of different concentrations of the compound (the initial concentration is 50 μM, 4-fold dilution) were added to each well of the 384-well plate, and the plate was incubated at 30° C. for 10 minutes, and finally 1 μL of 500 μM ATP solution was added to each well, and the plate was incubated at 30° C. for 2 hours. Then 5 μL of ADP-Glo was added, and the plate was incubated at 30° C. for 40 minutes. Then 10 μL of Kinase detection buffer was added, and the plate was incubated at 30° C. for 40 minutes. The 384-well plate was taken out and placed in a microplate reader (BMG labtech, PHERAstar FS), and the chemiluminescence was measured by the microplate reader.
as §2

The subject of another assay is Colo205 cells. Put plainly: In vitro proliferation inhibition test on Colo205 tumor cells (CellTiter-Glo). Format: cell-based. Conditions: Homo sapiens, COLO 205, 72 h; Colo205 cell proliferation, 3 days of culture, CTG. The protocol: The purpose of this experiment is to test the inhibitory activity of the compounds on the proliferation of Colo205 cells (CCL-222, ATCC) in vitro. The cells were treated with different concentrations of compounds in vitro. After 3 days of culture, the cell proliferation was detected using CTG (CellTiter-Glo® Luminescent Cell Viability Assay, Promega, catalog number: G7573) reagent. The in vitro activity of the compounds was evaluated according to the IC50 value.
In the following, taking the in vitro proliferation inhibition test method of Colo205 cells as an example, the method in the present disclosure for testing the in vitro proliferation inhibitory activity of the compounds of the present disclosure is described. This method is also applicable to, but not limited to, the in vitro proliferation inhibitory activity test on other tumor cells.
Colo205 cells were digested, centrifuged and then resuspended. The single cell suspension was mixed well, and the density of viable cells was adjusted to 5.0×10^4 cells/ml with cell culture medium (RPMI1640+2% FBS), and 95 μl/well was added to a 96-well cell culture plate. Only 100 μl medium was added to the peripheral wells of the 96-well plate. The culture plate was incubated in an incubator for 24 hours (37° C., 5% CO2).
The compound was dissolved in DMSO (dimethyl sulfoxide, Shanghai Titan Scientific Co., Ltd.) and prepared into a stock solution with an initial concentration of 20 mM. The initial concentration of the small molecule compound is 2 mM, and then 4-fold diluted into to 9 points, and the tenth point is DMSO. Another 96-well plate was taken, 90 μl of cell culture medium (RPMI1640+2% FBS) was added to each well, then 10 μl of different concentrations of the test sample was added to each well, the mixture was mixed well, and then 5 μl of different concentrations of the test sample was added to the cell culture plate, and each sample has two duplicate holes. The culture plate was incubated in the incubator for 3 days (37° C., 5% CO2). The 96-well cell culture plate was taken out, 50 μl CTG solution was added to each well, and the plate was incubated for 10 minutes at room temperature. In a microplate reader (BMG labtech, PHERAstar FS), chemiluminescence was measured with the microplate reader.
as §2
(Cellular ATP, detected with luciferase, serves as a proxy for viable cell number.)

T1 sequence (P27361 whole entry): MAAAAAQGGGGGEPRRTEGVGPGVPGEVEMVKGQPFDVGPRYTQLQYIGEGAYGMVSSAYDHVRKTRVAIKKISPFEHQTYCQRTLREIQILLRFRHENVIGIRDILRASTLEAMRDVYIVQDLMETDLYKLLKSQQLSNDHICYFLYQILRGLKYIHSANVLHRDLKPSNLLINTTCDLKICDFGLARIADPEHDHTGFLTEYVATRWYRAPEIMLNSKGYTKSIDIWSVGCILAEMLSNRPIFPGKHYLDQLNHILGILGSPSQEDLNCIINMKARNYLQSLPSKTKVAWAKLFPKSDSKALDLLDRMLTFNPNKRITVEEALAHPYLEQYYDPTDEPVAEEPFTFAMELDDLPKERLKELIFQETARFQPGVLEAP
T2 sequence (P28482 whole entry): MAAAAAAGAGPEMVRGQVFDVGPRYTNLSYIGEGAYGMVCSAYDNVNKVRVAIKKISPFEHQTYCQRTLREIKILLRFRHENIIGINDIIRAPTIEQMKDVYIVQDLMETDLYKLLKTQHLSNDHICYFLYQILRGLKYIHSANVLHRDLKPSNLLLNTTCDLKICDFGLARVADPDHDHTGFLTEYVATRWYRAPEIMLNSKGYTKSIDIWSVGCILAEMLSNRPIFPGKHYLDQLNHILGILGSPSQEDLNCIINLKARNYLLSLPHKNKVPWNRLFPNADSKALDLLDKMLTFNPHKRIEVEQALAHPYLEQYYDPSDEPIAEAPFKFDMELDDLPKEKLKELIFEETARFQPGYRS

`COc1cc(F)cc([C@@H](CO)NC(=O)[C@@H](C)N2CCc3sc(-c4ccnc(NC5CCOCC5)n4)cc3C2=O)c1` [Example 11, (R)-N-((S)-1-(3-Fluoro-5-methoxyphenyl)-2-hydroxyethyl)-2-(4-oxo-2-(2-((tetrahydro-2H-pyran-4-yl)amino)pyrimidin-4-yl)-6,7-dihydrothieno[3,2-c]pyridin-5(4H)-yl)-propionamide]: the IC50 (commonly the point on the concentration scale where inhibition reaches its midpoint) against ERK1 was 5 nM; against ERK2 it was 2 nM; with Colo205 cells, 16 nM.
Taken in the same sequence, the figures for `COc1cc(F)cc([C@@H](CO)NC(=O)[C@@H](C)N2CCc3sc(-c4nc(Nc5ccnn5C)ncc4Cl)cc3C2=O)c1` [Example 14, (R)-2-(2-(5-Chloro-2-((1-methyl-1H-pyrazol-5-yl)amino)pyrimidin-4-yl)-4-oxo-6,7-dihydrothieno[3,2-c]pyridin-5(4H)-yl)-N-((S)-1-(3-fluoro-5-methoxyphenyl)-2-hydroxyethyl)prop ionamide] were 27 nM, 6 nM and 14 nM.
As to `COc1cc(F)cc([C@@H](CO)NC(=O)[C@@H](C)N2CCc3sc(-c4nc(NC5CCOCC5)ncc4C)cc3C2=O)c1` [Example 16, (R)-N-((S)-1-(3-Fluoro-5-methoxyphenyl)-2-hydroxyethyl)-2-(2-(5-methyl-2-((tetrahydro-2 H-pyran-4-yl)amino)pyrimidin-4-yl)-4-oxo-6,7-dihydrothieno[3,2-c]pyridin-5-(4H)-yl)prop ionamide], the results for the IC50 on ERK1 and against ERK2 were 3 nM and 1 nM, respectively.
On to `COc1cc(F)cc([C@@H](CO)NC(=O)[C@@H](C)N2CCc3sc(-c4nc(N[C@@H](C)CO)ncc4C)cc3C2=O)c1` [Example 17, (R)-N-((S)-1-(3-Fluoro-5-methoxyphenyl)-2-hydroxyethyl)-2-(2-(2-(((S)-1-hydroxypropan-2-yl)amino)-5-methylpyrimidin-4-yl)-4-oxo-6,7-dihydrothieno[3,2-c]pyridin-5(4H)-yl)prop ionamide], for which the concentration for half-maximal inhibition (IC50) stood at 12 nM at ERK1, 2 nM on ERK2 and 17 nM with Colo205 cells.
